Experimental data: patent US7989667B2, “Processes for the crystallization of 2,2,4,4-tetramethylcyclobutanediol” (Eastman Chemical Company, priority 2008, dated 2011)

Tests used:
[1] = Meta-stable zone width in isobutyl isobutyrate (colorimeter transmission on cooling from 90 to 10 °C); type: physicochemical; conditions: for Limit of MZW / MZW (meta-stable zone width): isobutyl isobutyrate; for difference in onset of nucleation between repeated cool-downs: Experiments 3 and 4 of Table 2, same cooling rate 5 °C/hr; for Limit of Meta-Stable Zone Width: Table 1A, in isobutyl isobutyrate, data points shown in FIG. 7
Excerpt: The meta-stable zone width was estimated by charging 800 grams of a solution containing 100 relative weight % cis-2,2,4,4-tetramethylcyclobutanediol and 69 relative weight % trans-2,2,4,4-tetramethylcyclobutanediol in isobutyl isobutyrate solvent to a 1.2 L jacketed glass vessel. The vessel was equipped with a 4-blade flat blade pitched impeller for solids suspension, and the jacket was used to control the temperature of the vessel contents. The vessel was equipped with charging and sampling ports on top and a valve at the base to drain the vessel. The vessel contents were heated to 90° C., at which temperature both isomers were completely in solution.
All measurements to estimate the meta-stable zone width were made using a Beckmann Instruments PC 800 Colorimeter device. The device operated by transmitting a white light source into the solution which was reflected from a mirror at a distance of several millimeters from the source back to a detector in the probe. When no particles were present in suspension, most of the light was reflected back to the detector. If the solution was relatively transparent, some of the light was adsorbed by the solution and some was diffracted, but the majority was reflected. If crystals were present, a substantial quantity of the white light was adsorbed by the crystal mass and diffracted and less of the light was reflected back to the detector. In order to calibrate the instrument, a reference intensity was measured when no crystals were in suspension, and this was referred to as the 100% transmittance level.
The colorimeter was placed in the vessel such that the probe tip was submerged in the solution. The crystal free solution was cooled from 90° C. to 10° C. at a pre-determined cooling rate indicated in Table 2 and the magnitude of the transmission signal of the white light source monitored. When crystals appeared in solution, the white light source was blocked and the transmission/reflection decreased rapidly. Two distinct step changes in the transmission signal were observed indicating the nucleation of cis- and trans-2,2,4,4-tetramethylcyclobutanediol in suspension. FIG. 8 is a graph showing the solubility of cis-and trans-2,2,4,4-tetramethylcyclobutanediol in isobutyl isobutyrate and operating points for continuous crystallization.

[2] = Solubility of cis- and trans-2,2,4,4-tetramethylcyclobutanediol in isobutyl isobutyrate (GC of saturated liquid phase); type: physicochemical
Method: All of the solubility data and concentrations of cis and trans TMCD were measured by gas chromotography (GC) using an Agilent 6890GC instrument. The instrument was equipped with a split-splitless injector and flame ionization detection. The column is a DB®-Wax, 30 meter×0.25 mm ID, 0.50 μm film thickness column. The cis/trans ratio of the compositions was calculated from the respective concentrations.
The charge concentration of the isomers is expressed as weight % relative to the saturated concentration of each isomer at a temperature of 62.6° C.
The charge concentration of the isomers is expressed as weight % relative to the saturated concentration of each isomer at a temperature of 62.6° C. The vessel was equipped with a 4-blade flat blade pitched impeller for solids suspension, and the jacket was used to control the temperature of the vessel contents. The vessel was equipped with charging and sampling ports on top and a valve at the base to drain the vessel contents.
The slurry was allowed to stand for one hour sufficient for the solids to saturate the solvent at 6.4° C. At that time, a sample of the solution was drawn from the cell using a fritted pipette so as to remove only the liquid phase. The sample was analyzed for cis and trans isomer content. These values represented the saturated concentration of each isomer at the sampling temperature.
The cell contents were heated to 10.2° C. and the contents were held for a further hour to allow the slurry to equilibrate. A sample was then taken of the solution and analyzed. Following this procedure, data was gathered to 62.6° C.

[3] = Experiment 1, cooling rate 15 °C/hr
[4] = Experiment 2, cooling rate 10 °C/hr
[5] = Experiment 3, cooling rate 5 °C/hr
[6] = Experiment 4, cooling rate 5 °C/hr
[7] = Table 1A, in isobutyl isobutyrate, extrapolated from the data of FIG. 7
[8] = Table 2, solution in isobutyl isobutyrate used for MZW experiments 1-4
[9] = in isobutyl isobutyrate, 6.4 °C, wt % relative to saturated concentration of each isomer at 62.6 °C
[10] = in isobutyl isobutyrate, 10.2 °C, relative to saturated concentration at 62.6 °C
[11] = in isobutyl isobutyrate, 19 °C, relative to saturated concentration at 62.6 °C
[12] = in isobutyl isobutyrate, 26.2 °C, relative to saturated concentration at 62.6 °C
[13] = in isobutyl isobutyrate, 34.7 °C, relative to saturated concentration at 62.6 °C
[14] = in isobutyl isobutyrate, 39.6 °C, relative to saturated concentration at 62.6 °C
[15] = in isobutyl isobutyrate, 44.5 °C, relative to saturated concentration at 62.6 °C
[16] = in isobutyl isobutyrate, 51.6 °C, relative to saturated concentration at 62.6 °C
[17] = in isobutyl isobutyrate, 58.8 °C, relative to saturated concentration at 62.6 °C
[18] = in isobutyl isobutyrate, 62.6 °C (reference temperature)

Compound	Limit of MZW [1, 3] [°C]	MZW (meta-stable zone width) [1, 3] [°C]	Limit of MZW [1, 4] [°C]	MZW (meta-stable zone width) [1, 4] [°C]	Limit of MZW [1, 5] [°C]	MZW (meta-stable zone width) [1, 5] [°C]	Limit of MZW [1, 6] [°C]	MZW (meta-stable zone width) [1, 6] [°C]	difference in onset of nucleation between repeated cool-downs [1]	Limit of Meta-Stable Zone Width [1] [°C]	Saturated Temperature [2, 7] [°C]	Saturated Temperature [2, 8] [°C]	Solubility [2, 9] [Relative wt %]	Solubility [2, 10] [Relative wt %]	Solubility [2, 11] [Relative wt %]	Solubility [2, 12] [Relative wt %]	Solubility [2, 13] [Relative wt %]	Solubility [2, 14] [Relative wt %]	Solubility [2, 15] [Relative wt %]	Solubility [2, 16] [Relative wt %]	other results
CC1(C)[C@H](O)C(C)(C)[C@@H]1O [Cis-2,2,4,4-tetramethylcyclobutanediol, cis-2,2,4,4-tetramethylcyclobutanediol]	50.94	17.06	51.77	16.23	60.38	7.62	58.24	9.76	approximately 2 °C	58.24	68	68	0	3	10	17	29	37	47	64	Solubility [2, 17]: 86 Relative wt %; Solubility [2, 18]: 100 Relative wt %
CC1(C)[C@H](O)C(C)(C)[C@H]1O [Trans-2,2,4,4-tetramethylcyclobutanediol, trans-2,2,4,4-tetramethylcyclobutanediol]	48.67	8.33	49.29	7.71	50.34	6.66	50.36	6.64	0.02 °C	50.36	57	57	1	3	10	19	32	41	52	69	Solubility [2, 17]: 89 Relative wt %; Solubility [2, 18]: 100 Relative wt %
